US20200393446A1, “BIOLUMINESCENT SCREENING TEST FOR DETECTING CELL CYTOLYSIS” (Centre National de la Recherche Scientifique (CNRS), priority 2017, published 2020)

Legend:
[1] = tested on: NK cells; experiment: NK cell cytotoxicity assay: NanoLuc release from K562-NanoLuc cells co-cultured with compound-treated PBMC; format: cell-based, human; conditions: PBMCs incubated 16 hours with Clobenpropit, 400,000 PBMCs/16,000 K562-NanoLuc, four hours of co-culture, FIG. 3B
Method: PBMC from healthy donors were incubated overnight in the absence or presence of compounds to be tested. Unless specified otherwise, PBMC were plated in 96-well round-bottom plates at a concentration of 400,000 cells/well in a final volume of 100 μL. After 16 hours, 16.000 K562-NanoLuc or twINNE cells were added to cultures wells (100 μL of cell suspension at 160,000 cells/ml). Total volume in culture wells was 200 μL, and plates were centrifuged briefly for 2 min at 1,200 rpm. Unless specified otherwise, 20 μL of culture supernatants were collected and NanoLuc activity was determined by adding 40 μL of RPMI-1640 and 30 μL of NanoLuc reagent (Promega) in black, flat-bottom, 96½-well plates. Bioluminescence was measured during 0.1 s with a luminometer (Enspire; Perkin Elmer).

[2] = tested on: K562-NanoLuc cells; experiment: Lysis of K562-NanoLuc cells by detergent, NanoLuc activity in supernatant; format: cell-based, human; conditions: cells contacted with detergent, FIG. 1A

| Compound | cytolytic activity of NK cells (NanoLuc activity in supernatant) [1] | activity of the NanoLuc enzyme in the supernatant of K562-NanoLuc cells [2] |
| --- | --- | --- |
| NC(=NCc1ccc(Cl)cc1)SCCCc1cnc[nH]1 [Clobenpropit] | completely inhibited |  |
| NP40 |  | increased |
